Read-outs that look alike come from different tables or passages of the source.
Columns and labels:
Format in all cases: cell-based
[1] = test system: MM cell lines (MM1.S, 8226, KMS-11, U266); assay: Measurement of cytoplasmic calcium (indo-1 fluorescence ratio 400/500 nm); conditions: for effect on mitochondrial Ca2+ uptake / cytoplasmic Ca2+ after mitochondrial inhibitor: MM cell lines; for effect on mitochondrial Ca2+ uptake: estimated from cytoplasmic Ca2+
Experimental: (§1) Measurement of cytoplasmic calcium: Cytoplasmic Ca^2+ concentration was estimated by using the cell permeant fluorochrome indo-1-AM (Invitrogen, Carlsbad, Calif.). When excited at 355 nm, the maximum emission of indo-1 shifts from 500 nm to 400 nm following its binding to free Ca^2+. Thus, the ratio of reading at 400 nm and 500 nm correlates with concentration of cytoplasmic Ca^2+. Experiments were performed in cells loaded with indo-1 by incubating them with 2.5 μM of this fluorochrome at 37° C. for 45 min. Cells were then centrifuged at 400 g for 5 min and resuspended in their growth medium followed by distribution of 100 μl of aliquots into 96 well optical bottom plates (Nalge Nunc, Int., Rochester, N.Y.) and fluorescence was measured by Spectra Max Gemini Plus (Molecular Devices, Sunnyvale, Calif.). The average of triplicates from untreated samples was used as control reading and increase in cytoplasmic Ca^2+ was calculated as percent increase from control samples.

[2] = test system: non-myeloma cell lines (NALM6, MDA-MB-435, 143B, 1420); assay: as above; conditions: for increase in cytoplasmic Ca2+ after mitochondrial inhibitor: non-myeloma cell lines (oligomycin: all cell lines)
Experimental: as §1

[3] = test system: MM (MM.1S, 8226, KMS-11) and B-cell leukemia (NALM6, REH) cell lines; assay: ER Ca2+ leak: cytoplasmic Ca2+ (indo-1) after thapsigargine, Example 2
Experimental: Measurement of cytoplasmic and mitochondrial calcium: Cytoplasmic Ca^2+ concentration was estimated by using the cell permeant ratiometric fluorochrome indo-1-AM (Invitrogen, Carlsbad, Calif., USA) while mitochondrial Ca^2+ was measured by X-Rhod-1-AM (Invitrogen, Carlsbad, Calif., USA). In the latter assay, to normalize mitochondrial Ca^2+ signal to mitochondria number, Mitotracker Green (Invitrogen, Carlsbad, Calif., USA) fluorescence was simultaneously analyzed. Experiments were performed in cells loaded with either 2.5 μM of indo-1 or 5 μM X-rhod-1 and 250 nM of Mitotracker at 37° C. for 45 min. Cells were, then, centrifuged at 400 g for 5 min and resuspended in their growth medium followed by distribution of 100 μl of aliquots into 96 well optical bottom plates (Nalge Nunc, Int., Rochester, N.Y., USA) and fluorescence was measured by Spectra Max Gemini Plus (Molecular Devices, Sunnyvale, Calif., USA). The average of triplicates from untreated samples was used as control reading and increase in cytoplasmic or mitochondrial Ca^2+ was calculated as percent increase from control samples.
Due to the high levels of glycoprotein production in MM cells, it was investigated whether there is a greater ER Ca^2+ leak in these cells as compared to Bcells. As shown in previous reports, ER Ca^2+ leak can be assayed indirectly by measuring cytoplasmic Ca^2+ concentration following inhibition of SERCA by thapsigargine.

[4] = test system: B-cell leukemia lines (NALM6, REH)
Experimental: (§2) Cytotoxicity assay: Cells were incubated for 24 h at 37° C. in 5% CO2 at which time drug treatments began and continued for 24 h. At this time cells were transferred to a tube followed by centrifugation at 400 g for 5 min. The pellets were resuspended in 1 ml of Hanks solution and analyzed by Vi-Cell (Beckman Coulter, Fullerton, Calif., USA) cell viability analyzer.

[5] = test system: MM cell lines (MM.1S, 8226, KMS-11)
Experimental: as §2

[6] = test system: non-myeloma cell lines (NALM6, 143B, MDA-MB-435, 1420)
Experimental: (§3) Cytotoxicity assay: Cells were incubated for 24 hr at 37° C. in 5% CO2 at which time drug treatments began and continued for 24 hr. At this time attached cells were trypsinized and combined with their respective culture media while suspension cells were directly transferred to a tube followed by centrifugation at 400 g for 5 min. The pellets were resuspended in 1 ml of Hanks solution and analyzed by Vi-Cell (Beckman Coulter, Fullerton, Calif.) cell viability analyzer.

[7] = test system: multiple myeloma cell lines (MM.1S, 8226, KMS-11, U266)
Experimental: as §3

MM.1S cells = assay: Reversal of CCCP induced toxicity (trypan blue exclusion); conditions: 10 μM BAPTA-AM or 50 μM of Z-VAD
Experimental: A) Reversal of CCCP induced toxicity by either 10 μM BAPTA-AM or 50 μM of Z-VAD was investigated using trypan blue exclusion assays. The bars represent the average of triplicate samples +SD. B) ATP levels were assayed following 6 h of treatment with indicated concentrations of CCCP. The bars represent the average of triplicate samples +SD. C) Induction of UPR, activation of AMPK pathway and cleavage of caspase 3 was analyzed by western blots following 24 h treatment with indicated concentrations of CCCP in MM.1S and REH cell lines. β-Actin was used as a loading control. D) The quantification of phosphorylated AMPK and total AMPK bands in the previous panel was done using a Bio-Rad gel reader which employs Quality I software. The bars represent the fold increase in the ratio of p-AMPK/AMPK in treated versus untreated samples from three independent experiments +SD.
as §2

[8] = test system: CHOP/GADD153 and cleaved caspase 3 in 4 MM cell lines; assay: Western blot of CHOP/GADD153 and cleaved caspase 3 (UPR-mediated apoptosis); conditions: all 4 MM cell lines
Experimental: Western Blot analysis: Cells are plated at 10^4 cell/cm^−2 for attached cells and 3×10^5/ml for suspension cells and grown under drug treatment for the indicated times. At the end of the treatment period, cells are collected and lysed with 1% SDS in 80 mM Tris-HCL (ph 7.4) buffer supplemented with a proteinase inhibitor cocktail. DNA is fragmented by sonication and protein concentrations are measured by microBCA protein assay kit (Pierce, Rockford, Ill.). Samples are mixed with 3× Laemmli sample buffer (Cell Signaling, Danvers, Mass.) and 40 μg of protein was run on a 12% SDS-polyacrylamide gel. Gels are transferred to nitrocellulose membranes (Amersham, Piscataway, N.J.) and probed with monoclonal rabbit anti-GRP94, anti GRP-78, anti-PDI, anti-CHOP/GADD153, anti-cleaved caspase 3 (Cell Signaling, Danvers, Mass.) and monoclonal mouse anti-β-actin (Sigma, St. Louis, Mo.). Following probing, membranes are washed and incubated with HRP-conjugated secondary antibody (Invitrogen, Carlsbad, Calif.). Following addition of 1:3 diluted femto-chemiluminescent substrate (Pierce, Rockford, Ill.) membranes were exposed to blue autoradiographic film (ISC bioexpress, Kaysville, Utah). Where indicated, membranes were stripped with Stripping Buffer (Pierce, Rockford, Ill.) and reprobed with anti-β-actin (Sigma-Aldrich, St. Louis, Mo.) primary antibody. When needed, the blots were quantified using Bio-Rad gel reader which employs Quality I software (Bio-Rad, Hercules, Calif.).

[9] = test system: CHOP/GADD153 and cleaved caspase 3 in MM.1S, 8226, KMS-11; assay: Western blot of CHOP/GADD153 and cleaved caspase 3 in 3 MM cell lines; conditions: concentrations of FIG. 13
Experimental: . Induction of UPR-mediated apoptosis following treatment of 3 MM cell lines with four different mitochondrial inhibitors for various time points was assayed by western blot analysis of CHOP and cleaved caspase 3.
Western blot analysis: Western blots were performed. Membranes were probed with monoclonal rabbit anti-GRP94, anti GRP-78, anti-PDI, anti-CHOP/GADD153, anti-cleaved caspase 3 (Cell Signaling, Danvers, Mass., USA) and monoclonal mouse anti-β-actin (Sigma, St. Louis, Mo., USA).

[10] = 24 h, at concentrations toxic to MM cell lines
[11] = 24 h, at doses toxic to MM cell lines

Row | Compound | cytotoxicity [4, 10] | cytotoxicity (cell death) [5] | cytotoxicity [6, 11] | cytotoxicity (cell death) [7] | treatment time at which CHOP/GADD153 expression is noted [8] | increase in cytoplasmic Ca2+ after mitochondrial inhibitor [2] | CHOP/GADD153 expression relative to CCCP [9] | other results
1 | C/C=C(/C)C(=O)O[C@H]1C(C)=C2[C@H]([C@@H]1OC(=O)CCCCCCC)[C@@](C)(OC(C)=O)C[C@H](OC(=O)CCC)[C@@]1(O)[C@H]2OC(=O)[C@@]1(C)O [thapsigargine] | resistant | sensitive | resistant | sensitive | – | – | – | cytoplasmic Ca2+ increase after thapsigargine in 8226 ([1]; 8226 compared to KMS-11 or U266): increase less than that observed in KMS-11 or U266 cell lines; lag before increase in cytoplasmic Ca2+ ([1]; U266 (printed U226) cell line): ~20 min; cytoplasmic Ca2+ concentration after thapsigargine ([1]; immediately after addition, MM1.S, 8226 and KMS-11): significantly increases; cytoplasmic Ca2+ after thapsigargine ([2]; 143B and 1420, 30 min. after addition): significantly increases; cytoplasmic Ca2+ after thapsigargine ([2]; NALM6 and MDA-MB-435): little or no change; order of ER Ca2+ leak after thapsigargine ([3]; MM cell lines): MM1.S>8226>KMS-11; cytoplasmic Ca2+ concentration at new equilibrium ([3]; after 30 min, MM versus B-cell leukemias): all 3 MM cell lines had significantly greater cytoplasmic Ca^2+ concentration than the 2 B-cell leukemias; cytoplasmic Ca2+ concentration ([3]; within 5 min after addition, all five cell lines): significantly increases; order of sensitivity among MM cell lines ([7]; 24 h treatment): MM.1S>8226>KMS-11>U266
2 | Cc1c(C)c2c(c(C)c1O)CCC(C)(COc1ccc(CC3SC(=O)NC3=O)cc1)O2 (stereo not drawn) [troglitazone] | less toxic to B-cell leukemia lines | significant toxicity | not toxic to non-myeloma cells | significant toxicity | – | – | – | –
3 | Z-VAD | – | – | – | – | – | – | – | reversal of CCCP induced toxicity (MM.1S cells): can reverse the majority of CCCP toxicity
4 | CC(C)OC(=O)C(C)(C)Oc1ccc(C(=O)c2ccc(Cl)cc2)cc1 [fenofibrate] | less toxic to B-cell leukemia lines | significant toxicity | not toxic to non-myeloma cells | significant toxicity | – | – | – | –
5 | CC(=O)OCOC(=O)CN(CC(=O)OCOC(C)=O)c1ccccc1OCCOc1ccccc1N(CC(=O)OCOC(C)=O)CC(=O)OCOC(C)=O [BAPTA-AM] | – | – | – | – | – | – | – | reversal of CCCP induced toxicity (MM.1S cells): does not reverse the toxicity of CCCP
6 | CC[C@H]1/C=C/C=C/C[C@@H](C)[C@H](O)[C@@](C)(O)C(=O)[C@@H](C)[C@H](O)[C@@H](C)C(=O)[C@@H](C)[C@H](O)[C@@H](C)/C=C/C(=O)O[C@@H]2[C@H](C)[C@H](CC1)O[C@]1(CC[C@H](C)[C@H](C[C@@H](C)O)O1)[C@H]2C [oligomycin] | little or no toxicity | – | little or no toxicity | – | 6 h | minimal or no effect | comparable to that induced by CCCP | effect on mitochondrial Ca2+ uptake [1]: little or no effect; cytotoxicity (cell death) ([5]; 24 h, all 3 MM cell lines): significant cell death; cytotoxic potency compared to the other mitochondrial inhibitors ([7]; 24 h, MM cells): less toxic potency in MM cells when compared to other inhibitors; cytotoxicity (cell death) ([7]; 24 h treatment, all 4 MM cell lines): significant cell death
7 | C=C(C)[C@H]1Cc2c(ccc3c2O[C@@H]2COc4cc(OC)c(OC)cc4[C@@H]2C3=O)O1 [rotenone] | – | significant cell death | – | significant cell death | 6 h | not seen in non-myeloma cell lines except for NALM6 | less CHOP/GADD153 expression than CCCP | cytoplasmic Ca2+ after mitochondrial inhibitor [1]: immediate increase in cytoplasmic Ca^2+; effect on mitochondrial Ca2+ uptake [1]: equally inhibit mitochondrial Ca^2+ uptake; cytotoxicity [4]: little or no toxicity; cytotoxicity [6]: little or no toxicity; cytotoxic potency compared to the other mitochondrial inhibitors [7]: equipotency in inducing cytotoxicity in MM cells
8 | antimycin A | – | significant cell death | – | significant cell death | 6 h | not seen in non-myeloma cell lines except for NALM6 | comparable to that induced by CCCP | cytoplasmic Ca2+ after mitochondrial inhibitor [1]: immediate increase in cytoplasmic Ca^2+; cytotoxicity [4]: little or no toxicity; cytotoxicity [6]: little or no toxicity; cytotoxic potency compared to the other mitochondrial inhibitors [7]: less toxic than these two mitochondrial inhibitors

From patent US20120070511A1, “MITOCHONDRIAL INHIBITORS AND USES THEREOF” (priority 2009, published 2012)
